The values that follow come from ChEMBL document CHEMBL5608232, “Novel Glucagon-like Peptide 1 Receptor Agonists for Treating Type II Diabetes” (ACS Med Chem Lett, 2024).

What is called EC50 is the concentration that produces a half-maximal response.

The target of this assay is Glucagon-like peptide 1 receptor (Homo sapiens, UniProt P43220). In words: Agonist activity at human GLP-1R expressed in HEK293 cells assessed as increase in intracellular cAMP level incubated for 30 mins by HTRF assay. In kind it is functional, cell-based.
Chain of Glucagon-like peptide 1 receptor (P43220 whole entry): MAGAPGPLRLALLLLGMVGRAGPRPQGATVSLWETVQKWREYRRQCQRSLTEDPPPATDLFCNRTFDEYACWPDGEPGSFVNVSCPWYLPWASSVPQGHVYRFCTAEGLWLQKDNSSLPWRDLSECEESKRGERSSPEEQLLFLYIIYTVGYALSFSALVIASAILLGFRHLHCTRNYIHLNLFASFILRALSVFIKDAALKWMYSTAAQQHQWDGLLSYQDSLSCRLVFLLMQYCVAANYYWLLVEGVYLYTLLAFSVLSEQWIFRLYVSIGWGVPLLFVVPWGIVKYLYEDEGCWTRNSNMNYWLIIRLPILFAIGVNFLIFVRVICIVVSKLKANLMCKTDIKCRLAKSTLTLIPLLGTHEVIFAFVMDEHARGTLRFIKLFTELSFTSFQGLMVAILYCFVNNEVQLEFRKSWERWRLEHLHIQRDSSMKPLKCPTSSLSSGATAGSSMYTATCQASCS
Take `COc1cc(C(=O)O)cc2c1nc(Cc1cc(F)c(-c3cccc(OCc4ccc(C#N)cc4C)n3)cc1F)n2C[C@@H]1CCO1`: the EC50 came out at 0.3 nM.

On to `COCCOc1cc(C(=O)O)cc2c1nc(Cc1cc(F)c(-c3cccc(OCc4ccc(C#N)cc4F)n3)cc1F)n2C[C@@H]1CCO1`, for which the EC50 was found to be 0.297 nM.

With `COc1cc(C(=O)O)cc2c1nc(Cc1cc(C)c(-c3cccc(OCc4ccc(C#N)cc4F)n3)cc1F)n2C[C@@H]1CCO1`, the half-maximal effective concentration (EC50) was determined as 0.291 nM. The value for `COc1cc(C(=O)O)cc2c1nc(Cc1cc(F)c(-c3cccc(OCc4ccc(C#N)cc4F)n3)cc1F)n2C[C@@H]1CCO1` was 0.221 nM; that for `COc1cc(C#N)ccc1COc1cccc(-c2cc(F)c(Cc3nc4c(OC)cc(C(=O)O)cc4n3C[C@@H]3CCO3)cc2F)n1` was 0.167 nM; that for `COc1cc(C(=O)O)cc2c1nc(Cc1cc(F)c(-c3cccc(OCc4ccc(-n5cncn5)cc4)n3)cc1F)n2C[C@@H]1CCO1` was 0.402 nM.
